Molecular target: human TRPA1 (Homo sapiens (Human), UniProt O75762)
Experiment: Measurement of TRPA1 antagonist activity (1): intracellular calcium increase
Format: cell-based
Conditions: 293T cells transfected with human TRPA1 expression plasmid; allylisothiocyanate 20 μM stimulation; intracellular calcium fluorescence; read-out: hTRPA1 IC50
Description: Measurement of TRPA1 Antagonist Activity (1)
Human TRPA1 Expression Plasmid
As cDNA encoding human TRPA1 (GenBank accession No. […]), a commercially available product was purchased (manufactured by Kazusa DNA Research Institute, clone No.: pFN21AB7348, item No.: FHC07217). Using this as a template, full-length human TRPA1 gene was amplified using the primer sequences shown below, by reaction using DNA polymerase (manufactured by Stratagene, trade name: PfuUltra High-Fidelity DNA Polymerase).
A recognition site (underlined) of restriction enzyme HindIII was added to the 5′ side, and XbaI site (underlined) was added to the 3′ side, and GTT of the template sequence was changed to termination codon TAG (bold). The obtained double stranded DNA was enzyme-digested with HindIII and XbaI, and introduced into the multicloning site of expression plasmid pcDNA3.1/zeo(+) (manufactured by Invitrogen) to construct a human TRPA1 expression plasmid.
Human embryonic kidney-derived 293T cells were cultured in Dulbecco's Modified Eagle Medium containing 10% fetal bovine serum, 10 unit penicillin, and 10 μg streptomycin, plated on a petri dish having a diameter of 10 cm at 3×10^6 cells, and cultured for 24 hr in a CO2 incubator. A reduced serum medium (manufactured by Invitrogen, trade name: OPTI-MEM, 600 μL), a gene transfer reagent (manufactured by Mirus Bio, trade name: Mirus TransIT-293, 18 μL), and human TRPA1 expression plasmid (6 μg) were mixed, the total amount of the mixture was added to the cells on the petri dish to allow for gene transfer. The cells were recovered about for 8 hr later, plated on a poly-D-lysine coated 384 well black/clear bottom plate at 12,000 cells/well, and cultured overnight.
Measurement of Intracellular Calcium Increase
The 384 well plate was recovered, and the medium was removed. A calcium-bonded fluorescent indicator (manufactured by Molecular Device, trade name: Calcium4 Assay Kit, 38 μL) dissolved in assay buffer (1×HBSS, 20 mM HEPES, pH 7.2) was added, and the cells were stained in a CO2 incubator for 1 hr. The cells were taken out at room temperature, stood for not less than 15 min, a test substance (10 μL) was added by a platereader FDSS7000 (Hamamatsu Photonics K.K.) equipped with a 384ch dispenser. After 10 min, allylisothiocyanate (12 μL) was further added at a final concentration of 20 μM, and changes in the relative fluorescence intensity after addition of allylisothiocyanate were measured for 5 min.
Test Substance Preparation
The test substance was dissolved in dimethyl sulfoxide and serially diluted with an assay buffer containing 0.1% bovine serum albumin (1×HBSS, 20 mM HEPES, pH 7.2) to a 4.8-fold concentration of the evaluation concentration. Allylisothiocyanate, which is a known TRPA1 activator, was dissolved in dimethyl sulfoxide to 100 mM, and further diluted 5-fold (100 μM) of the final concentration, like the test substance.
Calculation of Antagonist Activity
Under the test substance-free conditions, the maximum variation range of the fluorescence intensity before and after allylisothiocyanate stimulation was defined to be 100% activity rate, and the variation range before and after buffer stimulation was defined as 0% activity rate. The activity rate on addition of the test substance was determined, and the numerical value obtained by subtracting the activity rate from 100 was defined to be an inhibitory rate. IC50, which is the concentration of the test substance necessary for reaching the 50% inhibitory rate, was calculated from the sigmoid approximate curve by a spreadsheet software Excel-Fit.

human TRPA1, sequence (O75762 whole entry): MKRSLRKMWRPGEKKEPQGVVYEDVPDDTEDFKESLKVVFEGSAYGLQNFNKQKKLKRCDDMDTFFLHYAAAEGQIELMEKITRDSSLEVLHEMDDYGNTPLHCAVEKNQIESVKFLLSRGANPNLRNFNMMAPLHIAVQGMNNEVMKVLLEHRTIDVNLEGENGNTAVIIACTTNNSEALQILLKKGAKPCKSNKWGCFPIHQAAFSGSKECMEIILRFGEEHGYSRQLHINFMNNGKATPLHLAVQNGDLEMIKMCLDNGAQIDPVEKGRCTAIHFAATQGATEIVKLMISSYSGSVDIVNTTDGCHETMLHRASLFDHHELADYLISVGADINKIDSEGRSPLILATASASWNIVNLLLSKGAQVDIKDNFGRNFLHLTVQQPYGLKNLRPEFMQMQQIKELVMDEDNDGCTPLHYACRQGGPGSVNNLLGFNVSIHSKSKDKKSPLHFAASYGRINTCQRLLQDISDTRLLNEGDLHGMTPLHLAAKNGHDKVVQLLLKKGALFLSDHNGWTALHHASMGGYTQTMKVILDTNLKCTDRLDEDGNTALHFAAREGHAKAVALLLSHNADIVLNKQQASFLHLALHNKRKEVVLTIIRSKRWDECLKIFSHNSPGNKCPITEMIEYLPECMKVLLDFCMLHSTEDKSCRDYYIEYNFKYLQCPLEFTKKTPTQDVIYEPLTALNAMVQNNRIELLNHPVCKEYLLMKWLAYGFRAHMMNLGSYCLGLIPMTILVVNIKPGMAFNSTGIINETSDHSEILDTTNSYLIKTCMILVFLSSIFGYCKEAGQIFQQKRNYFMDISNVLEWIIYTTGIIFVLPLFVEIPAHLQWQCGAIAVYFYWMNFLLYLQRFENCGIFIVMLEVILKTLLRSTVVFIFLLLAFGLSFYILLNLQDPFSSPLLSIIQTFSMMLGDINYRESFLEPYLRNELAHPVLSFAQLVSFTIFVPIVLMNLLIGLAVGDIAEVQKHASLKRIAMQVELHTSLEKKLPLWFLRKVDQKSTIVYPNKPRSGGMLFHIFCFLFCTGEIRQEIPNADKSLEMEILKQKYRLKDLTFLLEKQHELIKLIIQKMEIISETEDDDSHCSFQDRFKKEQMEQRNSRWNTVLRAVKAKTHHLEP

Row | Compound | IC50 [nM]
1 | O=C(NCc1cc(-c2ccc(C(F)(F)F)cc2)cnn1)[C@@H]1CCCN1S(=O)(=O)c1cc2ccccc2o1 [Example 210, (2S)-1-(benzofuran-2-ylsulfonyl)-N-[[5-[4-(trifluoromethyl)phenyl]-pyridazin-3-yl]methyl]pyrrolidine-2-carboxamide] | 19
2 | C[C@H](NS(=O)(=O)c1cc2cc(F)ccc2o1)C(=O)NCc1ccc(O)c(-c2cnc(C(F)(F)F)cn2)c1 [Example 254, (2S)-2-[(5-fluorobenzofuran-2-yl)sulfonylamino]-N-[[4-hydroxy-3-[5-(trifluoromethyl)pyrazin-2-yl]phenyl]methyl]propanamide] | 80
3 | O=C(NCc1cccc(Sc2ccc(C(F)(F)F)cc2)c1)[C@@H]1CCCN1S(=O)(=O)c1cc2ccccc2o1 [Example 321, (2S)-1-(benzofuran-2-ylsulfonyl)-N-[[3-[4-(trifluoromethyl)phenyl]sulfanylphenyl]methyl]pyrrolidine-2-carboxamide] | 33
4 | O=C(NCc1ccnc(-c2cc3ccccc3[nH]2)c1)[C@@H]1CCCN1S(=O)(=O)c1cc2ccccc2o1 [Example 176, (2S)-1-(benzofuran-2-ylsulfonyl)-N-[[2-(1H-indol-2-yl)-4-pyridyl]methyl]pyrrolidine-2-carboxamide] | 320
5 | O=C(NCc1ccnc(-c2ccc(C(F)(F)F)nc2)c1)[C@@H]1CCCN1S(=O)(=O)c1cc2cc(F)ccc2o1 [Example 133, (2S)-1-(5-fluorobenzofuran-2-yl)sulfonyl-N-[[2-[6-(trifluoromethyl)-3-pyridyl]-4-pyridyl]methyl]pyrrolidine-2-carboxamide] | 0.83
6 | C[C@H](NS(=O)(=O)c1cc2cc(F)ccc2o1)C(=O)NCc1cccc(-c2cnc(C(F)(F)F)cn2)c1 [Example 234, (2S)-2-[(5-fluorobenzofuran-2-yl)sulfonylamino]-N-[[3-[5-(trifluoromethyl)pyrazin-2-yl]phenyl]methyl]propanamide] | 34
7 | O=C(NCc1cccc(SCc2ccccc2)c1)[C@@H]1CCCN1S(=O)(=O)c1cc2ccccc2o1 [Example 57, (2S)-1-(benzofuran-2-ylsulfonyl)-N-[(3-benzylsulfanylphenyl)methyl]pyrrolidine-2-carboxamide] | 16
8 | C[C@H](NS(=O)(=O)c1cc2cc(F)ccc2o1)C(=O)NCc1cc(-c2ccc(OC(F)(F)F)cc2)ncn1 [Example 190, (2S)-2-[(5-fluorobenzofuran-2-yl)sulfonylamino]-N-[[6-[4-(trifluoromethoxy)phenyl]pyrimidin-4-yl]methyl]propanamide] | 5.2
9 | C[C@H](NS(=O)(=O)c1cc2cc(F)ccc2o1)C(=O)NCc1cc(-c2ccc(C(F)(F)F)cc2)ncn1 [Example 109, (2S)-2-[(5-fluorobenzofuran-2-yl)sulfonylamino]-N-[[6-[4-(trifluoromethyl)phenyl]pyrimidin-4-yl]methyl]propanamide] | 4.7
10 | C[C@H](NS(=O)(=O)c1cc2ccccc2o1)C(=O)NCc1cccc(-c2ccc(C(F)(F)F)nc2)c1 [Example 101, (2S)-2-(benzofuran-2-ylsulfonylamino)-N-[[3-[6-(trifluoromethyl)-3-pyridyl]phenyl]methyl]propanamide] | 27
11 | O=C(NCc1cc(-c2ccc(C(F)(F)F)cc2)ncn1)[C@@H]1CCCN1S(=O)(=O)c1cc2cc(F)ccc2o1 [Example 90, (2S)-1-(5-fluorobenzofuran-2-yl)sulfonyl-N-[[6-[4-(trifluoromethyl)phenyl]pyrimidin-4-yl]methyl]pyrrolidine-2-carboxamide] | 0.84
12 | O=C(NCc1cccc(-c2ccc(C(F)(F)F)nc2)n1)[C@@H]1CCCN1S(=O)(=O)c1cc2cc(F)ccc2o1 [Example 145, (2S)-1-(5-fluorobenzofuran-2-yl)sulfonyl-N-[[6-[6-(trifluoromethyl)-3-pyridyl]-2-pyridyl]methyl]pyrrolidine-2-carboxamide] | 29
13 | C[C@H](NS(=O)(=O)c1cc2ccccc2o1)C(=O)NCc1ccnc(-c2ccc(C(F)(F)F)cc2)c1 [Example 103, (2S)-2-(benzofuran-2-ylsulfonylamino)-N-[[2-[4-(trifluoromethyl)phenyl]-4-pyridyl]methyl]propanamide] | 56
14 | C[C@H](NS(=O)(=O)c1cc2ccccc2o1)C(=O)NCc1cc(C(F)(F)F)ccc1Cl [Example 72, (2S)-2-(benzofuran-2-ylsulfonylamino)-N-[[2-chloro-5-(trifluoromethyl)phenyl]methyl]-propanamide] | 350
15 | O=C(NCc1cc(-c2ccc(C(F)(F)F)cn2)ccn1)[C@@H]1CCCN1S(=O)(=O)c1cc2c(Cl)nccc2o1 [Example 265, (2S)-1-(4-chlorofuro[3,2-c]pyridin-2-yl)sulfonyl-N-[[4-[5-(trifluoromethyl)-2-pyridyl]-2-pyridyl]methyl]pyrrolidine-2-carboxamide] | 12
16 | O=C(NCc1ccnc(-c2ccc(OC(F)F)cc2)c1)[C@@H]1CCCN1S(=O)(=O)c1cc2cc(F)ccc2o1 [Example 130, (2S)-N-[[2-[4-(difluoromethoxy)phenyl]-4-pyridyl]methyl]-1-(5-fluorobenzofuran-2-yl)sulfonyl-pyrrolidine-2-carboxamide] | 2
17 | O=C(NCc1cccc(-c2ccc(Cl)cc2)c1)[C@@H]1CCCN1S(=O)(=O)c1cc2cc(F)ccc2o1 [Example 156, (2S)-N-[[3-(4-chlorophenyl)phenyl]methyl]-1-(5-fluorobenzofuran-2-yl)sulfonyl-pyrrolidine-2-carboxamide] | 2.1
18 | O=C(NCc1cc(-c2ccc(C(F)(F)F)cn2)ccn1)[C@@H]1C=CCN1S(=O)(=O)c1cc2cc(F)ccc2o1 [Example 225, (2S)-1-(5-fluorobenzofuran-2-yl)sulfonyl-N-[[4-[5-(trifluoromethyl)-2-pyridyl]-2-pyridyl]methyl]-2,5-dihydropyrrole-2-carboxamide] | 1.3
19 | (2S)-1-(benzofuran-2-ylsulfonyl)-N-[[3-[6-(trifluoromethyl)-3-pyridyl]phenyl]methyl]pyrrolidine-2-carboxamide [Example 79] | 1.6
20 | O=C(NCc1ccc(F)c(-c2ccc(C(F)(F)F)cc2O)c1)[C@@H]1CCCN1S(=O)(=O)c1cc2ccccc2o1 [Example 308] | 360
21 | O=C(NCc1ccnc(-c2ccc(C(F)(F)F)cc2)c1)[C@@H]1C=CCN1S(=O)(=O)c1cc2cc(F)ccc2o1 [Example 98, (2S)-1-(5-fluorobenzofuran-2-yl)sulfonyl-N-[[2-[4-(trifluoromethyl)phenyl]-4-pyridyl]methyl]-2,5-dihydropyrrole-2-carboxamide] | 0.76
22 | O=C(NCc1cc(-c2ccc(C(F)(F)F)cc2)nc(OCc2ccccc2)n1)[C@@H]1CCCN1S(=O)(=O)c1cc2ccccc2o1 [Example 327, (2S)-1-(benzofuran-2-ylsulfonyl)-N-[[2-benzyloxy-6-[4-(trifluoromethyl)phenyl]pyrimidin-4-yl]methyl]pyrrolidine-2-carboxamide] | 4.3
23 | O=C(NCc1cc(-c2ccc(OC(F)(F)F)cc2)ccn1)[C@@H]1CCCN1S(=O)(=O)c1cc2cc(F)ccc2o1 [Example 222, (2S)-1-(5-fluorobenzofuran-2-yl)sulfonyl-N-[[4-[4-(trifluoromethoxy)phenyl]-2-pyridyl]methyl]pyrrolidine-2-carboxamide] | 2.4
24 | O=C(NCc1cccc(OS(=O)(=O)c2cc3cc(F)ccc3o2)c1)[C@@H]1CCCN1S(=O)(=O)c1cc2cc(F)ccc2o1 [Example 295, 5-fluorobenzofuran-2-sulfonic acid [3-[[[(2S)-1-(5-fluorobenzofuran-2-yl)sulfonylpyrrolidine-2-carbonyl]amino]methyl]phenyl]ester] | 69
25 | O=C(NCc1cccc(OCc2ccc(C(F)(F)F)cc2)c1)[C@@H]1CCCN1S(=O)(=O)c1cc2c(F)cccc2o1 [Example 42, (2S)-1-(4-fluorobenzofuran-2-yl)sulfonyl-N-[[3-[[4-(trifluoromethyl)phenyl]methoxy]-phenyl]methyl]pyrrolidine-2-carboxamide] | 7.1

— patent US10626112B2, “Heterocyclic sulfonamide derivative and medicine comprising same” (EA PHARMA CO., LTD., priority 2014, dated 2020)
